Data from patent US8410178B2, “CIS 3,4-dihydroxy-2-(3-methylbutanoyl)-5-(3-methylbutyl)-4-(4-methylpentanoyl)cyclopent-2-en-1-derivatives, substantially enantiomerically pure compositions and methods” (KinDex Therapeutics, LLC, priority 2010, dated 2013).

Legend:
[1] = tested on: Zucker diabetic fatty (ZDF) rats; assay: Glucose and triglyceride levels in a rat diabetes model; assay type: in vivo
Protocol: 64 six-week-old male Zucker diabetic fatty (ZDF) rats with glucose levels of 175-300 mg/dL were randomized and divided into eight dosing groups: 1) vehicle only (0.5% methylcellulose (w/v), 0.2% Tween 80 (w/v); negative control), 2) (+)-KDT501 25 mg/kg, 3) (+)-KDT501 50 mg/kg, 4) (+)-KDT501 100 mg/kg, 5) (+)-KDT501 200 mg/kg, 6) metformin 200 mg/kg (positive control), 7) metformin 200 mg/kg and (+)-KDT501 100 mg/kg, and 8) pioglitazone 30 mg/kg (positive control). Drugs were administered orally twice a day for 33 days.
Animals were weighed at randomization and once per week thereafter, with administration dosages calculated based on the most recent body weight measurements. Blood samples were collected by tail bleed three days prior to randomization, at randomization, and at days 15 and 29 after the start of treatment. These blood samples were used to perform whole blood glucose evaluations using a glucometer, as well as to measure blood triglyceride levels. Body composition was tested by qNMR on days 2 and 29 after the start of treatment. An oral glucose tolerance test (OGTT) was performed on days 31 and 32 after the start of treatment. Rats underwent an overnight fast prior to OGTT, and tail bleeds for glucose and insulin were performed pre-glucose bolus and at 15, 30, 60, 90, and 120 minutes post-glucose bolus. The glucose bolus was 2 g dextrose/kg of body weight. On day 33, a cardiac puncture was performed for PK analysis.

[2] = target: Human DAPK1 (Homo sapiens, UniProt P53355); assay: DAPK1 activity, cell free kinase assay; assay type: biochemical
Protocol: The effect of (+)-KDT501 and (−)-KDT501 on death-associated protein kinase 1 (DAPK1) activity was evaluated.
Human DAPK1 was incubated with 8 mM MOPS, pH 7.0, 0.2 mM EDTA, 250 μM ZIP peptide substrate ([…]), 10 mM MgOAc, and [γ-^33P-ATP] (specific activity approximately 500 cpm/pmol, concentration as required). (+)-KDT501 or (−)-KDT501 at varying concentrations (100, 30, 10, 1, 0.3, 0.1, 0.03, 0.01 μM) were added to the reaction mixture. The reaction was initiated by addition of the MgATP mix. After incubation for 40 minutes at room temperature, the reaction was stopped by addition of 3% phosphoric acid solution. 10 μL of reaction mixture was spotted onto a P30 filtermat, washed three times for five minutes in 75 mM phosphoric acid and once in methanol prior, then dried and subjected to scintillation counting.

[3] = target: T1, GPR120 (Homo sapiens, UniProt Q5NUL3); assay: GPR120 activity, intracellular calcium response in CHO-K1/GPR120/Gα15 cells; assay type: cell-based; details: CHO-K1/GPR120/Gα15 cells; calcium response; unit inferred; read-out: GPR120 agonistic activity EC50
T1 sequence (Q5NUL3 1-361): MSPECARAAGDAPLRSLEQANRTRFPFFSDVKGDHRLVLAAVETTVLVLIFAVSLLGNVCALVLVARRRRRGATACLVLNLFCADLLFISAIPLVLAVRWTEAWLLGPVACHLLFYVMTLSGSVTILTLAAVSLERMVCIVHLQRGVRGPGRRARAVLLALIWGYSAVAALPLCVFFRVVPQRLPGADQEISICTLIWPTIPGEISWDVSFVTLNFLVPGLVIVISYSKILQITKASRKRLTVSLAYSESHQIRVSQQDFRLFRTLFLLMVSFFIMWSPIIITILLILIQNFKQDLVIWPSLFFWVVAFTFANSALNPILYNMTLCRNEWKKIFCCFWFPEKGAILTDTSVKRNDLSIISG
Protocol: GPR120 activity was measured by intracellular calcium response. CHO-K1/GPR120/Gα15 cells were regularly passaged to maintain optimal cell health and cultured in Ham's F12 supplemented with 10% fetal bovine serum, 200 μg/mL zeocin, and 100 μg/mL hygromycin. Cells were seeded in a 384-well black-wall, clear-bottom plate at a density of 20,000 cell per well in 20 μL of growth medium 18 hours prior to the start of the experiment, and maintained at 37° C./5% CO2. Cells were loaded with calcium-4, and baseline fluorescence readings were obtained from 1 second to 20 seconds using a fluorescent imaging plate reader (FLIPR). At 20 seconds, (+)-KDT501 (5× final concentration) was added to the reading plate, and the fluorescence signal was monitored for 100 seconds (21 seconds to 120 seconds). α-linolenic acid (LA), eicosapentaenoic acid (EPA), and docosahexaenoic acid (DHA) were used as controls. Data acquisition and analysis was performed using ScreenWorks (version 3.1) and exported to Excel. The average fluorescence value for the first 20 seconds was calculated as the baseline reading. The relative fluorescent unit (ΔRFU) intensity values were calculated with the maximal fluorescent units (21 s to 120 s), subtracting the baseline reading. Data analysis wizard written by GenScript was used to analyze EC50. Dose response curves of antagonist were fitted using the GraphPad Prism 4 four parameter logistic equation Y=Bottom+(Top−Bottom)/(1+10^((LogIC50−X)*HillSlope)), where X is the logarithm of concentration and Y is response.

[4] = tested on: diet induced obese (DIO) mice; assay: Glucose, insulin, HbA1C and fat mass in high fat diet-induced obesity (DIO) mouse model; assay type: in vivo
Protocol: 14 week-old male mice were randomized and divided into seven dosing groups with 16 animals in each group: 1) vehicle only (0.5% methylcellulose (w/v), 0.2% Tween 80 (w/v); negative control), 2) (+)-KDT501 25 mg/kg, 3) (+)-KDT501 50 mg/kg, 4) (+)-KDT501 100 mg/kg, 5) (+)-KDT501 200 mg/kg, 6) metformin 200 mg/kg (positive control), and 7) pioglitazone 30 mg/kg (positive control). Drugs were administered orally twice a day for 30 days.
Animals were weighed at randomization and once per week thereafter, with administration dosages calculated based on the most recent body weight measurements. The mice were maintained on a high fat diet (40% Kcal) (TD95217; prepared by Covance Laboratories, Greenfield, Ind.). Body composition was tested by qNMR on days −5 and 28 after the start of treatment. […]. An oral glucose tolerance test (OGTT) was performed on day 30 after the start of treatment. Mice underwent an overnight fast prior to OGTT, and tail bleeds for glucose and insulin were performed pre-glucose bolus and at 15, 30, 60, 90, and 120 minutes post-glucose bolus. The glucose bolus was 2 g dextrose/kg of body weight. OGTT results were evaluated by area under the curve (AUC) measurements and Dunnett's test.

Sequence of Human DAPK1 (P53355 whole entry): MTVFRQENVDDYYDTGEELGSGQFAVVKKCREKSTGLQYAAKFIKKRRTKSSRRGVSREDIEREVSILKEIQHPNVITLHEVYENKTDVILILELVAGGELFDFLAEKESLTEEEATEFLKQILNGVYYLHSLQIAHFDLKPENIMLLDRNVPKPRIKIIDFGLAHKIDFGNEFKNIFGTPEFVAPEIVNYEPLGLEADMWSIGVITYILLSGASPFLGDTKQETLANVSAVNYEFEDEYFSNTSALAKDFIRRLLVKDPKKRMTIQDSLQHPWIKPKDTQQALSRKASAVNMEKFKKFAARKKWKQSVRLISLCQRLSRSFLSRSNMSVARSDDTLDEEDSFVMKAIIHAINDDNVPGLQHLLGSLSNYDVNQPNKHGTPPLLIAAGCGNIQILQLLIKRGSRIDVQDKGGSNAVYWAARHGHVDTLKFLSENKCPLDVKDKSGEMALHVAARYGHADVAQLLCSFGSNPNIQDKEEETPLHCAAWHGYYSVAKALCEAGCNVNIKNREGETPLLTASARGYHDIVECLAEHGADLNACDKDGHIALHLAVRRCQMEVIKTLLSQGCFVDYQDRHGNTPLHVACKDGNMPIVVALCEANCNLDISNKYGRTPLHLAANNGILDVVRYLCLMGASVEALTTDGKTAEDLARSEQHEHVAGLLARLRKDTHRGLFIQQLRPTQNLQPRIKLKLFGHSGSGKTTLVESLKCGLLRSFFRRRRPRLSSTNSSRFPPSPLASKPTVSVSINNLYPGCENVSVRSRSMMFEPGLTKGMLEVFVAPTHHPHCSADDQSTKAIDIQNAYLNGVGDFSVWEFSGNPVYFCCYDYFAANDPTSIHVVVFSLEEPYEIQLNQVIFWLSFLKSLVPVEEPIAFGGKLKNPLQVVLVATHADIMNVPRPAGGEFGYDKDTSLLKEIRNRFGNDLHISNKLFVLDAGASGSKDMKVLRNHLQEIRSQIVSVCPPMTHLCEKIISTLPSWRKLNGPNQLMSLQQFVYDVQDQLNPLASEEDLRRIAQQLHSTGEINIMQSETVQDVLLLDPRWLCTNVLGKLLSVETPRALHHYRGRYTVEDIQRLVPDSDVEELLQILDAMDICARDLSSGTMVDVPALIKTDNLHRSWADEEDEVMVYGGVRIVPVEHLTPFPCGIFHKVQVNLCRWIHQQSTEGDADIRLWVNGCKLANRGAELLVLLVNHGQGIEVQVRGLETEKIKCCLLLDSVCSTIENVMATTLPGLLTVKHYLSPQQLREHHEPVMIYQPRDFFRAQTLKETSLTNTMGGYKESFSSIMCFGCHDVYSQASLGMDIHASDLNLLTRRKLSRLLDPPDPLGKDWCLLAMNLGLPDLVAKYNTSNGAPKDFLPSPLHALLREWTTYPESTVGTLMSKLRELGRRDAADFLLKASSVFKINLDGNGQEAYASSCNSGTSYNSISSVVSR

For `CC(C)CCC(=O)[C@@]1(O)C(O)=C(C(=O)CC(C)C)C(=O)[C@@H]1CCC(C)C.[K]` [(+)-KDT501, (+)-(4S,5R)-3,4-dihydroxy-2-(3-methylbutanoyl)-5-(3-methylbutyl)-4-(4-methylpentanoyl)cyclopent-2-en-1-one potassium salt], the “whole blood glucose levels” value ([1]; 200 mg/kg orally twice a day) was “significant decrease”, the triglyceride levels ([1]; 200 mg/kg orally twice a day, days 15 and 29) was “significant decrease” and the “whole blood glucose levels” value ([1]; 25, 50, or 100 mg/kg orally twice a day) was “nearly the same as those observed in negative control rats”. For the same molecule, the “fold difference in DAPK1 IC50 between the two compounds” value ([2]; (+)-KDT501 versus (−)-KDT501) was about 15 fold, the IC50 ([2]; cell free assay) was 2.65 µM and the EC50 [3] was 30.3 µM. The “insulin levels from the OGTT” value ([4]; 200 mg/kg orally twice a day, day 30) was “significant decrease”, the “blood glucose levels from the OGTT” value ([4]; 100 or 200 mg/kg orally twice a day, day 30) was “significant decrease” and the fat mass ([4]; 100 or 200 mg/kg orally twice a day, qNMR day 28) was “significant difference in fat mass versus negative control mice”. For the same molecule, the HbA1C ([4]; orally twice a day, day 29, dose not specified) was “trend towards HbA1C inhibition”.
